Data as given in patent publication US4853334A, “Method for the degradation of volatile chlorinated aliphatic hydrocarbons using pseudomonas fluorescens” (Microlife Technics, Inc., priority 1988, dated 1989).
Several values for one entry are separate records, joined by “and”; a condition that tells them apart may be missing. Identical values can stand only once.

Key:
[1] = test system: Pseudomonas fluorescens NRRL-B-18296; assay: Degradation of halogenated hydrocarbons by the strain (general statements); type: cell-based
[2] = test system: Pseudomonas fluorescens NRRL-B-18296; assay: Degradation of various chloroaliphatic carbon sources in minimal medium broth (Example 3); type: cell-based; details: 100 ppm; mmo with 0.5% glucose, 0.005% yeast extract, 0.4% potassium nitrate; 10^6 bacteria/ml; 25° C., 24 hours
Method: (§1) In Examples 3 to 6, compounds of interest were quantitated using a Perkin-Elmer (model 8500) gas chromatograph equipped with an HS-6 headspace analyzer (Perkin-Elmer, Norwalk, CT). The instrument was fitted with a 6 foot stainless steel Sp2100 column (Supelco, Bellefonte, PA). Carrier gas flow rate (helium) was 20 ml/min. with an isothermal column temperature of 60° C. Injector and detector temperatures were 150° C. and 200° C. respectively.
(§2) All sample vials were equilibrated at 80° C. in the headspace analyzer for 10 minutes. Vial pressurization times of 30 seconds and injection times of 6 seconds were both controlled by programmed instrument time functions.
(§3) Calibrations were made by the external standard method using the internal data handling capabilities of the instrument. 100 ppm standards were prepared by dispensing 10 ul of the compounds into a serum bottle containing 100.0 g of chilled media analogous to experimental vials. Once the compound was completely dissolved, 2.00 g of the mixture was delivered by syringe to a headspace vial and sealed for subsequent headspace GC analysis.
(§4) Analysis of experimental vials was conducted by removing an aliquot by syringe and delivering 2.00 g to a headspace vial. Vials (6 ml) specified for use with the headspace analyzer were sealed using 19 mm TFE/silicone rubber septa and 20 mm crimp top seals (Alltech Associates, Deerfield, IL). A hand operated crimper was utilized.
The experiments were accomplished in 50 ml of minimal medium (mmo) that was modified. The modified minimal media (mmo) contained the sodium-potassium phosphate buffer at 0.06 M final concentration. The modified (mmo) was supplemented to a final concentration with 0.5% glucose, 0.005% yeast extract, 0.4% potassium nitrate and the volatile chloroaliphatic compound at 100 ppm. The flasks were inoculated with Pseudomonas fluorescens NRRL-B-18296 at 10^6 bacteria/ml. The remaining headspace in the vials was then filled with pure oxygen (approximately 60 ml) and sealed using 19 mm TFE/silicone rubber septa with 20mm crimp top seals. A hand operated crimper was utilized. The sealed vials were then shaken at 350 rpm on a New Brunswick gyrotary shaker (New Brunswick Scientific, Edison, NJ) at 25° C. for 24 hours.
Samples in triplicate (2.00 g) were removed after the 24 hour incubation. The samples were sealed in 6 ml vials and subjected to headspace analysis.
^1 values reported as percentage amounts of 100 ppm carbon source

[3] = test system: Pseudomonas fluorescens NRRL-B-18296; assay: Growth on volatile chlorinated carbon sources (minimal media, vapor phase); type: cell-based; design: key: +: Growth; -: no growth; details: 72 hours at 25° C., minimal media (mmo), carbon source in vapor phase of sealed container
Method: ^1 Incubation was for 72 hours at 25° C. on minimal media
(mmo). Volatile carbon sources were supplied in the vapor phase of a
sealed container. +, Growth; -, no growth.

[4] = test system: Pseudomonas fluorescens NRRL-B-18296; assay: Degradation of a mixture of 1,2-dichloroethane and 1,2-dichloropropane, 1.0% glucose (Example 5); type: cell-based; details: glucose concentration increased to 1.0%
Method: as §1, §2, §3
Analysis of experimental vials was conducted by removing an aliquot by syringe and delivering 2.00 g to a headspace vial. Vials (6 ml) specified for use with the headspace analyzer were sealed using 19 mm TFE/silicone rubber septa and 20 mm crimp top seals (Alltech Associates, Deerfield, IL). […]

[5] = test system: Pseudomonas fluorescens NRRL-B-18296; assay: Degradation of a mixture of 1,2-dichloroethane and 1,2-dichloropropane, 0.1% glucose (Example 4); type: cell-based; details: for % degradation: mixture, 100 ppm each, 0.1% glucose, 0.4% potassium nitrate, 10^6 bacteria/ml, 25° C., 168 hours
Method: as §1, §2, §3, §4
The potassium nitrate provides an assured oxygen source for this strain, since the degradations must be conducted under aerobic conditions.
^1 Experiments were accomplished in 100 ml minimal medium (mmo) supplemented with 0.1% glucose, 100 ppm of 1,2-dichloroethane, 100 ppm of 1,2-dichloropropane, and 0.4% potassium nitrate. The flasks were inoculated with Pseudomonas fluorescens NRRL-B-18296 at 10^6 bacteria/ml, sealed and shaken at 350 rpm on a New Brunswick gyrotary shaker (New Brunswick Scientific, Edison, NJ) at 25° C. for 168 hours. The shaking provides further oxygen to the medium.

[6] = test system: Pseudomonas fluorescens NRRL-B-18296; assay: Induction of degradation of 1,2-dichloroethane using various carbon sources (Example 6); type: cell-based
Method: as §1, §2
as §3, with “analysis. […]” for “analysis.”
Individual flasks were supplemented with the following carbon sources at 2mM: ethanol, sodium acetate, glucose, sodium succinate, sodium benzoate, ortho cresol or meta cresol. […] After incubation for 24 hours, the vials were analyzed directly on the headspace gas chromatograph.

Acinetobacter sp. = details: induced by prior growth on phenol; Nelson et al.; cited from earlier work
[7] = formed by anaerobic methanogens; Bouwer 1983; cited from earlier work

SMILES	Degradation by the strain (in words) [1]	% degradation [2]	Growth on carbon source [3]	also measured
CC(Cl)(Cl)Cl [1,1,1-trichloroethane]	not degraded	0%		
ClCC(Cl)Cl [1,1,2-trichloroethane]	can be degraded	23%	+	
ClCCCl [1,2-dichloroethane]	can be degraded	10%	+	degradative rate, with respect to time [4]: increased; Degradation upon extended degradation and supplementing with more glucose [5]: substantially completely degraded; % degradation [5]: 23.3% and 23%
CC(Cl)CCl (stereo not drawn) [1,2-dichloropropane]	can be degraded	3%	+	degradative rate, with respect to time [4]: increased; Degradation upon extended degradation and supplementing with more glucose [5]: substantially completely degraded; % degradation [5]: 32.1% and 32%
ClCCCCl [1,3-dichloropropane]		0%	-	
CC(C)(Cl)Cl [2,2-dichloropropane]	can be degraded	7%	+	
ClC(Cl)(Cl)Cl [Carbon tetrachloride]	not degraded			
CC(O)C(=O)O (stereo not drawn) [Sodium lactate]				Suitability as carbon source for the strain ([6]; 20 mM sodium lactate pre-culture, 25° C., 24 hours): effective carbon source
ClCCl [dichloromethane]	not degraded			
O=C[C@H](O)[C@@H](O)[C@H](O)[C@H](O)CO [glucose]				Induction of degradation of 1,2-dichloroethane ([6]; short time period of degradation): best carbon source to induce the degradation of 1,2-dichloroethane
ClC(Cl)=C(Cl)Cl [tetrachloroethylene]		0%	-	
ClC=C(Cl)Cl [trichloroethylene]	can be degraded	2%	+	aerobic metabolism (in words) (Acinetobacter sp.): aerobic metabolism
C=CCl [vinyl chloride]				toxicity relative to haloaliphatic hydrocarbons [7]: more toxic than the haloaliphatic hydrocarbons
